Laboratory results: ChEMBL document CHEMBL3102782, “Current status of the research and development of diacylglycerol O-acyltransferase 1 (DGAT1) inhibitors” (J Med Chem, 2013)
Values belong to the compound of their own block, whether it stands above or below them.

How the values were obtained:
Homo sapiens [1] = organism: Homo sapiens; assay: Reduction of triglyceride AUC in human relative to baseline; type: functional; parameters: scale not given: the % may be the effect or the level left
[2] = Tmax in human; type: ADME, organism-based; settings: in vivo
Homo sapiens [3] = organism: Homo sapiens; assay: Reduction of triglyceride AUC in human at 60 mg; type: functional; parameters: scale not given: the % may be the effect or the level left
Homo sapiens [4] = organism: Homo sapiens; assay: Reduction of triglyceride AUC in human; type: functional, organism-based
Homo sapiens [5] = organism: Homo sapiens; assay: Reduction of triglyceride AUC in human receiving 60% fat meal at >5 mg; type: functional; parameters: scale not given: the % may be the effect or the level left
Homo sapiens [6] = assay: Reduction in triglycerides in familial chylomicronemia syndrome patients measured after 3 weeks of compound dosing; type: functional; parameters: scale not given: the % may be the effect or the level left
Mus musculus = assay: Toxicity in DIO C57BL6 mouse assessed as body weight loss at 30 mg/kg, po administered qd from day 1 to 7 and bid from day 8 to 14 followed by single dose on day 15 morning; type: organism-based; parameters: dose 30 mg/kg, route oral; settings: in vivo

Tmax [2]: 1 h
EC50 (Homo sapiens [4]): 440 nM
Structure (SMILES): Cc1nc(C)c(-c2ccc(C3CCC(CC(=O)O)CC3)cc2)nc1C(N)=O (configuration not stated) [AZD-7687]
Activity (Homo sapiens [1]): 84%
Activity (Homo sapiens [3]): 50%
Activity (Homo sapiens [5]): >75%

Structure (SMILES): O=C(O)C[C@H]1CC[C@H](c2ccc(-c3ccc(Nc4ccc(C(F)(F)F)nc4)cn3)cc2)CC1 [PRADIGASTAT]
Activity (Homo sapiens [6]): 38.4%

Structure (SMILES): CC1(C)Oc2ncnc(N)c2N=C1c1ccc([C@H]2CC[C@H](CC(=O)O)CC2)cc1
Activity (Mus musculus): 6.7%
